Where two headings read alike, the source gives them in different places.

What all share (assay type): biochemical
Assay [1] concerns the target human ADAMTS-5 (Homo sapiens (Human), UniProt Q9UNA0). Description: hADAMTS-5 TBIS-1 cleavage assay, Protocol 3. To be noted: Protocol 3, TBIS-1 substrate, 90 min at 37° C.; read-out: hADAMTS-5 potency IC50. The protocol: The reaction is initiated by adding to the assay plate TBIS-1 (10 μL, 4.5 μM, Anaspec) in the same buffer.
Finally, the fluorescence is read on the Envision (Perkin Elmer) after an incubation of 90 min at 37° C. (Excitation 485 nm, emission 530).

For assay [2], the target named is T1, human MMP13 (Homo sapiens (Human), UniProt P45452). The assay is described as follows: hMMP13 390 MMP FRET Substrate I cleavage assay, Protocol 2. To be noted: Protocol 2, 390 MMP FRET Substrate I; read-out: hMMP-13 potency IC50. On the procedure:
(§1) The basis for the assay is the cleavage of the substrate 390 MMP FRET Substrate I (Anaspec Cat# AS-27076) by human MMP13 (Chemicon, Cat#CC068).
(§2) Human MMP13 is preactivated by incubated the enzyme in the same buffer complemented with 1 mM freshly prepared p-Aminophenylmercuric acetate (AMPA) for 1 h at 37° C.
(§3) The reaction is initiated by adding to the assay plate 390 MMP FRET Substrate I (10 μL, 2.5 μM) in the same buffer.
(§4) Finally, the fluorescence is read on the Envision (Perkin Elmer) after an incubation of 45 min at room temperature (Excitation 485 nm, Emission 530).

The target in assay [3] is human ADAMTS6 (Homo sapiens (Human), UniProt Q9UKP5). Description: hADAMTS-6 520 MMP FRET substrate XII cleavage assay. To be noted: 37° C. for 2 h, read-out: hADAMTS-6 potency IC50. An excerpt: The IC50 value for test compounds can be determined in a fluorescent based protease assay.
The basis for the assay is the cleavage of the substrate 520 MMP FRET substrate XII by human ADAMTS6.
The substrate contains sequence Arg-Pro-Lys-Pro-Tyr-Ala-Nva-Trp-Met-Lys (SEQ ID NO: 7) with attached a fluorescent probe and a quencher. Without ADAMTS6, the emission of the probe is quenched. If the substrate is cleaved by ADAMTS6, the emission of the probe is not quenched anymore. Inhibition of ADAMTS6 activity, will result in a decrease of the signal.
To perform the assay, 4 μL of a dilution series of compound in water, starting from 20 μM highest concentration, 1/5 dilution, is added to the wells. 2 ng ADAMTS6 enzyme is diluted in 25 mM Tris pH8.0, 0.05% CHAPS, 2.5 mM CaCl2 in a total volume of 26 μL (final concentration 0.73 nM). The reaction is started by addition of 10 μL of 1 μM 520 MMP FRET Substrate XII (final concentration, diluted in same buffer as described above) and the mixture is incubated at 37° C. for 2 h. […] After this incubation, cleavage of the substrate is measured using the Envision (Perkin Elmer, exc485/em530).

For assay [4], the target named is human TACE (Homo sapiens (Human), UniProt P78536). The assay is described as follows: hTACE 5FAM-[…]-5TAMRA cleavage assay. To be noted: 75 min at room temperature, read-out: hTACE potency IC50. The protocol: Finally, the fluorescence is read on the Envision (Perkin Elmer) after an incubation of 75 min at room temperature (Excitation 485 nm, Emission 530).
In assay [5] the target is human MMP14 (Homo sapiens (Human), UniProt P50281). The assay is described as follows: hMMP14 390 MMP FRET Substrate I cleavage assay. To be noted: 60 min at room temperature, read-out: hMMP-14 potency IC50. The protocol:
The basis for the assay is the cleavage of the substrate 390 MMP FRET Substrate I (Anaspec Cat# AS-27076) by human MMP14 (Biomol, Cat#SE-259).
as §3
Finally, the fluorescence is read on the Envision (Perkin Elmer) after an incubation of 60 min at room temperature (Excitation 485 nm, Emission 530).

Assay [6] addresses T1, human MMP13. The assay is described as follows: hMMP13 390 MMP FRET Substrate I cleavage assay, Protocol 1. To be noted: Protocol 1, 390 MMP FRET Substrate I; read-out: hMMP-13 potency IC50. On the procedure: as §1, §2, §3, §4

Chain of human ADAMTS6 (Q9UKP5 other isoform, or with tags, fused parts or gaps): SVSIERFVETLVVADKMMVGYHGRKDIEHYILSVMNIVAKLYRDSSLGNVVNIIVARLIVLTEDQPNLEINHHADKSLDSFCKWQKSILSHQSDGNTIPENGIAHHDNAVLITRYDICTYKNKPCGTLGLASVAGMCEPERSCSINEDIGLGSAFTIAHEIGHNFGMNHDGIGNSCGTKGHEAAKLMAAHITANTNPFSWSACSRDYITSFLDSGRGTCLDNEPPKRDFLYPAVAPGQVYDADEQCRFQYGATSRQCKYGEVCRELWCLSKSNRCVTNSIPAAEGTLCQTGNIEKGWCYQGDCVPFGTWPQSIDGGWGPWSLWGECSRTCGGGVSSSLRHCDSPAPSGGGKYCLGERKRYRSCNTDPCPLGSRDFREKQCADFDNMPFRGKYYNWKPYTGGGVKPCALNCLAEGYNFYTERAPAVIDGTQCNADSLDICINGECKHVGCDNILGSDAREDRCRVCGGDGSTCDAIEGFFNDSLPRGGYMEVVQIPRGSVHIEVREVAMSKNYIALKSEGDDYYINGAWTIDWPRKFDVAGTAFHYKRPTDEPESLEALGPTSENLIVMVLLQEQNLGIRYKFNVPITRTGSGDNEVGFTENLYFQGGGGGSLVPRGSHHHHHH
Chain of human TACE (P78536 215-671): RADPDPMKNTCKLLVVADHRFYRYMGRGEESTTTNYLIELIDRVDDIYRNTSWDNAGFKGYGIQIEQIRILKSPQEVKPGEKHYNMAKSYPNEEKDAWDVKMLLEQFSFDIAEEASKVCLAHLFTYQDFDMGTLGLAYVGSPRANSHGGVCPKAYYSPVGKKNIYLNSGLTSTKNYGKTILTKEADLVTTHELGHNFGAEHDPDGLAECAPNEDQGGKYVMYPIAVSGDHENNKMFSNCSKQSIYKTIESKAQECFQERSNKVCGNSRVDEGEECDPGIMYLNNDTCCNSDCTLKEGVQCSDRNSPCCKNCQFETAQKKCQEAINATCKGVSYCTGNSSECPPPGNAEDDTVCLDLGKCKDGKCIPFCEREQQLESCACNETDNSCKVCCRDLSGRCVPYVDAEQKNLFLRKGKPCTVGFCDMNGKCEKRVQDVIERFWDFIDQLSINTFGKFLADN
Chain of human ADAMTS-5 (Q9UNA0 262-930): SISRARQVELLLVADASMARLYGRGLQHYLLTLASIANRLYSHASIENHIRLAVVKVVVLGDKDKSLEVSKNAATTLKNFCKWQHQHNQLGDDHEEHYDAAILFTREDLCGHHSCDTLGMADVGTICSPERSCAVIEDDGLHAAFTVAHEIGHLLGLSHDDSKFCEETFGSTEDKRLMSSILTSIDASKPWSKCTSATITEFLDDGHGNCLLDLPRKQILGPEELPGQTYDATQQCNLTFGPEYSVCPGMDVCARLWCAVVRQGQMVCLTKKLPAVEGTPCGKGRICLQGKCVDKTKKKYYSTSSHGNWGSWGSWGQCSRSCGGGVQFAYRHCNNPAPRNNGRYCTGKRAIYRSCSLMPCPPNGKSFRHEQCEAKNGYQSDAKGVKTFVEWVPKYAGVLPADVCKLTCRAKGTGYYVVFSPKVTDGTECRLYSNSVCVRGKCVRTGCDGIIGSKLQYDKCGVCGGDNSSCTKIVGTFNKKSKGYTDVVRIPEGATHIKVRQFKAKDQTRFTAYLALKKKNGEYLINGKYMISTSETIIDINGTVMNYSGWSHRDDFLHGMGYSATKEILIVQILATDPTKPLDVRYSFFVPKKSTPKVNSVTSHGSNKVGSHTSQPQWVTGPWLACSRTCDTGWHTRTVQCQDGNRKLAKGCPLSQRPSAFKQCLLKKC

Turning to `COc1cc(Cl)c(Cl)cc1C1CCN(C(=O)CC[C@@]2(C)NC(=O)NC2=O)CC1` [Cpd 96, (5R)-5-[3-[4-(4,5-dichloro-2-methoxy-phenyl)-1-piperidyl]-3-oxo-propyl]-5-methyl-imidazolidine-2,4-dione], the IC50 in assay [1] was > 100 nM; in assay [2], > 100 nM; in assay [3] it was 0.001 to 25 nM; in assay [4] (5FAM-[…]-5TAMRA), 50 to 100 nM; in assay [5], > 100 nM.
In the case of `COc1cc(Cl)c(F)cc1C1CCN(C(=O)C(C)CC2(C)NC(=O)NC2=O)CC1` (centres unmarked) [Cpd 110, 5-[3-[4-(4-chloro-5-fluoro-2-methoxy-phenyl)-1-piperidyl]-2-methyl-3-oxo-propyl]-5-methyl-imidazolidine-2,4-dione], the IC50 in assay [1] is 50 to 100 nM; in assay [2], > 100 nM; in assay [3], 0.001 to 25 nM; in assay [4] (5FAM-[…]-5TAMRA), 50 to 100 nM; in assay [5], > 100 nM.
As for `Cc1cc(Cl)c(Cl)cc1C1CCN(C(=O)CCC2(C)NC(=O)NC2=O)CC1` (centres unmarked) [Cpd 71, 5-(3-(4-(4,5-dichloro-2-methylphenyl)piperidin-1-yl)-3-oxopropyl)-5-methylimidazolidine-2,4-dione], the IC50 is > 100 nM in assay [1]; > 100 nM in assay [2]; 0.001 to 25 nM in assay [3]; 50 to 100 nM in assay [4] (5FAM-[…]-5TAMRA); > 100 nM in assay [5].
With `COc1cc(Cl)ccc1C1CCN(C(=O)CC[C@@]2(C)NC(=O)NC2=O)CC1` [Cpd 79, (5R)-5-[3-[4-(4-chloro-2-methoxy-phenyl)-1-piperidyl]-3-oxo-propyl]-5-methyl-imidazolidine-2,4-dione], the IC50 is > 100 nM in assay [1]; > 100 nM in assay [2]; 0.001 to 25 nM in assay [3]; > 100 nM in assay [4] (5FAM-LAQAVRSSSRK-5TAMRA); > 100 nM in assay [5].
As for `COc1c(Cl)cccc1C1CCN(C(=O)CC[C@H]2NC(=O)NC2=O)CC1` [Cpd 74, (R)-5-(3-(4-(3-chloro-2-methoxyphenyl)piperidin-1-yl)-3-oxopropyl) imidazolidine-2,4-dione], the IC50 in assay [1], in assay [2], in assay [3], in assay [4] (5FAM-LAQAVRSSSRK-5TAMRA) and in assay [5] was > 100 nM each time.
Take `CCc1cc(C2CCN(C(=O)[C@@H](C)C[C@@]3(COC)NC(=O)NC3=O)CC2)cc(OC)c1Cl` (stereo in doubt) [Cpd 104, 5-[3-[4-(4-chloro-3-ethyl-5-methoxy-phenyl)-1-piperidyl]-2-methyl-3-oxo-propyl]-5-(methoxymethyl) imidazolidine-2,4-dione]: the IC50 in assay [1] was 25 to 50 nM; in assay [2], > 100 nM; in assay [3], 0.001 to 25 nM; in assay [4] (5FAM-[…]-5TAMRA), 50 to 100 nM; in assay [5] it was > 100 nM.
On to `COc1cc(F)c(Cl)cc1C1CCN(C(=O)[C@@H](C)C[C@@]2(C)NC(=O)NC2=O)CC1` (stereo in doubt) [Cpd 111, 5-[3-[4-(5-chloro-4-fluoro-2-methoxy-phenyl)-1-piperidyl]-2-methyl-3-oxo-propyl]-5-methyl-imidazolidine-2,4-dione], for which the half-inhibitory concentration (IC50) in assay [2] is > 100 nM; in assay [3], 0.001 to 25 nM; in assay [4] (5FAM-[…]-5TAMRA), 50 to 100 nM; in assay [5], > 100 nM.
For `COC[C@]1(C[C@H](C)C(=O)N2CCC(c3cc(F)c(Cl)cc3OC)CC2)NC(=O)NC1=O` (stereo in doubt) [Cpd 109, 5-[3-[4-(4-chloro-5-fluoro-2-methoxy-phenyl)-1-piperidyl]-2-methyl-3-oxo-propyl]-5-(methoxymethyl) imidazolidine-2,4-dione], the IC50 in assay [2] is > 100 nM; in assay [3], 0.001 to 25 nM; in assay [4] (5FAM-[…]-5TAMRA), 50 to 100 nM; in assay [5], > 100 nM.
For `COc1cc(Cl)cc(C2CCN(C(=O)CC[C@H]3NC(=O)NC3=O)CC2)c1` [Cpd 67, (R)-5-(3-(4-(3-chloro-5-methoxyphenyl)piperidin-1-yl)-3-oxopropyl) imidazolidine-2,4-dione], the IC50 in assay [1] and in assay [2] was > 100 nM each time.
`COc1cc(Cl)ccc1C1CCN(C(=O)CC[C@H]2NC(=O)NC2=O)CC1` [Cpd 42, (R)-5-(3-(4-(4-chloro-2-methoxy-phenyl)piperidin-1-yl)-3-oxopropyl) imidazolidine-2,4-dione]: the IC50 in assay [6] is > 100 nM; in assay [1] it was > 100 nM; in assay [3], 25 to 50 nM; in assay [4] (5FAM-LAQAVRSSSRK-5TAMRA), > 100 nM; in assay [5], > 100 nM.
Consider `COC[C@]1(C[C@H](C)C(=O)N2CCC(c3ccc(Cl)cc3OC)CC2)NC(=O)NC1=O` (stereo in doubt) [Cpd 108, 5-[3-[4-(4-chloro-2-methoxy-phenyl)-1-piperidyl]-2-methyl-3-oxo-propyl]-5-(methoxymethyl) imidazolidine-2,4-dione], for which the IC50 is > 100 nM in assay [2], 0.001 to 25 nM in assay [3], 50 to 100 nM in assay [4] (5FAM-[…]-5TAMRA) and > 100 nM in assay [5].
`COc1cc(Cl)ccc1C1CCN(C(=O)[C@@H](C)C[C@@]2(C)NC(=O)NC2=O)CC1` (stereo in doubt) [Cpd 97, 5-[3-[4-(4-chloro-2-methoxy-phenyl)-1-piperidyl]-2-methyl-3-oxo-propyl]-5-methyl-imidazolidine-2,4-dione]: the IC50 in assay [2] is > 100 nM; in assay [3], 0.001 to 25 nM; in assay [4] (5FAM-LAQAVRSSSRK-5TAMRA) it was > 100 nM; in assay [5] it was > 100 nM.
With `COc1cc(Cl)cc(C2CCN(C(=O)CC[C@@]3(C)NC(=O)NC3=O)CC2)c1` [Cpd 66, (R)-5-(3-(4-(3-chloro-5-methoxyphenyl)piperidin-1-yl)-3-oxopropyl)-5-methyl-imidazolidine-2,4-dione], the IC50 was > 100 nM in assay [1], > 100 nM in assay [2], 0.001 to 25 nM in assay [3] and 25 to 50 nM in assay [4] (5FAM-[…]-5TAMRA).
For `COC[C@]1(C[C@H](C)C(=O)N2CCC(c3cc(Cl)c(F)cc3OC)CC2)NC(=O)NC1=O` (stereo in doubt) [Cpd 107, 5-[3-[4-(5-chloro-4-fluoro-2-methoxy-phenyl)-1-piperidyl]-2-methyl-3-oxo-propyl]-5-(methoxymethyl) imidazolidine-2,4-dione], the IC50 was > 100 nM in assay [2], 0.001 to 25 nM in assay [3], 50 to 100 nM in assay [4] (5FAM-[…]-5TAMRA) and > 100 nM in assay [5].
On to `COc1cc(C2CCN(C(=O)CC[C@@]3(C)NC(=O)NC3=O)CC2)ccc1Cl` [Cpd 85, (5R)-5-[3-[4-(4-chloro-3-methoxy-phenyl)-1-piperidyl]-3-oxo-propyl]-5-methyl-imidazolidine-2,4-dione], for which the half-maximal inhibitory concentration (IC50) was > 100 nM in assay [2], 0.001 to 25 nM in assay [3], 50 to 100 nM in assay [4] (5FAM-[…]-5TAMRA) and > 100 nM in assay [5].
As for `CC1(CCC(=O)N2CCC(c3ccc(Cl)c(F)c3)CC2)NC(=O)NC1=O` (centres unmarked) [Cpd 54, 5-(3-(4-(4-chloro-3-fluorophenyl)piperidin-1-yl)-3-oxopropyl)-5-methyl-imidazolidine-2,4-dione], the half-maximal inhibitory concentration (IC50) in assay [6] was > 100 nM; in assay [1], > 100 nM; in assay [3], 50 to 100 nM; in assay [4] (5FAM-LAQAVRSSSRK-5TAMRA), > 100 nM; in assay [5] it was > 100 nM.
Take `COc1cc(C2CCN(C(=O)CC[C@@]3(C)NC(=O)NC3=O)CC2)cc(F)c1Cl` [Cpd 84, (5R)-5-[3-[4-(4-chloro-3-fluoro-5-methoxy-phenyl)-1-piperidyl]-3-oxo-propyl]-5-methyl-imidazolidine-2,4-dione]: the IC50 in assay [2] is > 100 nM; in assay [3] it was 0.001 to 25 nM; in assay [4] (5FAM-[…]-5TAMRA), 50 to 100 nM; in assay [5] it was > 100 nM.

The record behind these values is US10550100B2, “5-[3-[piperzin-1-yl]-3-oxo-propyl]-imidazolidine-2,4-dione derivatives as ADAMTS 4 and 5 inhibitors for treating E.G. osteoarthritis” (GALAPAGOS NV, priority 2016, dated 2020).
